Measurements published in US10463644B2, “Uses of sesquiterpene lactone compounds and their derivatives in drugs preparation” (ACCENDATECH, priority 2013, dated 2019).
Like-named read-outs stand apart in the source and are kept apart here.

Key:
[1] = test system: IL-1β secreted by synoviocyte; assay: Content of IL-1β in culture supernatant of synoviocyte of RA model rats given test compound; type: in vivo; details: rat RA model, dose 30 mg/kg.2d; normal control 0.16 ± 0.034, NaCl 0.49 ± 0.136
Procedure, shortened: (§1)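 Rat RA model; dosing 30 mg/kg.2d; normal and NaCl control groups. Synoviocyte culture supernatant collected; TNF-α and PGE2 measured by one established method, IL-1β by a separate method.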

[2] = test system: PGE2 secreted by synoviocyte; assay: Content of PGE2 in culture supernatant of synoviocyte of RA model rats given test compound; type: in vivo; details: rat RA model, dose 30 mg/kg.2d; normal control 8.34 ± 1.29, NaCl 32.44 ± 10.32
Procedure, shortened: as §1

cancer stem cells = assay: Survival rate of cancer stem cells after test compound is added (flow cytometry, Annexin V-FITC/PI, clinical specimen); type: cell-based, patient; details: Homo sapiens, 18 h
Procedure, shortened: (§2)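 Survival was determined in clinical specimens after an 18 h compound treatment, using Annexin V-FITC/PI apoptosis staining and flow cytometry.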

cancer cells = assay: Survival rate of cancer cells after test compound is added (flow cytometry, Annexin V-FITC/PI, clinical specimen); type: cell-based, patient; details: Homo sapiens, 18 h, read-out: Survival rate (%) All cells (Stem cells and ordinary cells)
Procedure, shortened: as §2

[3] = test system: TNF-α secreted by synoviocyte; assay: Content of TNF-α in culture supernatant of synoviocyte of RA model rats given test compound; type: in vivo; details: rat RA model, dose 30 mg/kg.2d; normal control 0.38 ± 0.027, NaCl 0.74 ± 0.098
Procedure, shortened: as §1

[4] = Head and neck squamous cell carcinomas

C=C1C(=O)O[C@@H]2[C@@H]3[C@@H](CC[C@@]3(C)O)C(=C)CC[C@@H]12 [Compound 48]
Content of IL-1β in culture supernatant of synoviocyte (x ± s) [1]: 0.38 ± 0.046 ng/mL | Content of PGE2 in culture supernatant of synoviocyte (x ± s) [2]: 26.65 ± 2.45 ng/mL | viability at 10 µM (cancer stem cells; AML): 47% | viability at 20 µM (cancer stem cells; AML): 38% | viability at 10 µM (cancer stem cells; Brain glioma): 52% | viability at 20 µM (cancer stem cells; Brain glioma): 43% | viability at 10 µM (cancer stem cells; Brain tumor): 66% | viability at 20 µM (cancer stem cells; Brain tumor): 53% | viability at 10 µM (cancer stem cells; Breast cancer): 54% | viability at 20 µM (cancer stem cells; Breast cancer): 47% | viability at 10 µM (cancer stem cells; CLL): 46% | viability at 20 µM (cancer stem cells; CLL): 38% | viability at 10 µM (cancer stem cells; CML): 51% | viability at 20 µM (cancer stem cells; CML): 46% | viability at 10 µM (cancer stem cells; Children hepatoblastoma): 68% | viability at 20 µM (cancer stem cells; Children hepatoblastoma): 56% | viability at 10 µM (cancer stem cells; Colon adenocarcinoma): 58% | viability at 20 µM (cancer stem cells; Colon adenocarcinoma): 49% | viability at 10 µM (cancer stem cells; Colorectal cancer): 66% | viability at 20 µM (cancer stem cells; Colorectal cancer): 55% | viability at 10 µM (cancer stem cells; Gastric cancer): 51% | viability at 20 µM (cancer stem cells; Gastric cancer): 39% | viability at 10 µM (cancer stem cells; Gastrointestinal tumor): 57% | viability at 20 µM (cancer stem cells; Gastrointestinal tumor): 52% | viability at 10 µM (cancer stem cells; Glioma): 69% | viability at 20 µM (cancer stem cells; Glioma): 60% | viability at 10 µM (cancer stem cells; [4]): 64% | viability at 20 µM (cancer stem cells; [4]): 58% | viability at 10 µM (cancer stem cells; Laryngeal cancer): 63% | viability at 20 µM (cancer stem cells; Laryngeal cancer): 55% | viability at 10 µM (cancer stem cells; Liver cancer): 74% | viability at 20 µM (cancer stem cells; Liver cancer): 61% | viability at 10 µM (cancer stem cells; Lung adenocarcinoma): 67% | viability at 20 µM (cancer stem cells; Lung adenocarcinoma): 55% | viability at 10 µM (cancer stem cells; Lung cancer): 61% | viability at 20 µM (cancer stem cells; Lung cancer): 54% | viability at 10 µM (cancer stem cells; Malignant melanoma): 82% | viability at 20 µM (cancer stem cells; Malignant melanoma): 76% | viability at 10 µM (cancer stem cells; Nasopharynx cancer): 57% | viability at 20 µM (cancer stem cells; Nasopharynx cancer): 48% | viability at 10 µM (cancer stem cells; Ovarian cancer): 56% | viability at 20 µM (cancer stem cells; Ovarian cancer): 45% | viability at 10 µM (cancer stem cells; Pancreatic cancer): 55% | viability at 20 µM (cancer stem cells; Pancreatic cancer): 49% | viability at 10 µM (cancer stem cells; Prostate cancer): 62% | viability at 20 µM (cancer stem cells; Prostate cancer): 51% | viability at 10 µM (cancer stem cells; Retinoblastoma): 62% | viability at 20 µM (cancer stem cells; Retinoblastoma): 54% | viability at 10 µM (cancer stem cells; Skin cancer): 46% | viability at 20 µM (cancer stem cells; Skin cancer): 39% | viability at 10 µM (cancer cells; AML): 59% | viability at 20 µM (cancer cells; AML): 48% | viability at 10 µM (cancer cells; Brain glioma): 66% | viability at 20 µM (cancer cells; Brain glioma): 54% | viability at 10 µM (cancer cells; Brain tumor): 78% | viability at 20 µM (cancer cells; Brain tumor): 69% | viability at 10 µM (cancer cells; Breast cancer): 76% | viability at 20 µM (cancer cells; Breast cancer): 58% | viability at 10 µM (cancer cells; CLL): 67% | viability at 20 µM (cancer cells; CLL): 48% | viability at 10 µM (cancer cells; CML): 69% | viability at 20 µM (cancer cells; CML): 51% | viability at 10 µM (cancer cells; Children hepatoblastoma): 75% | viability at 20 µM (cancer cells; Children hepatoblastoma): 68% | viability at 10 µM (cancer cells; Colon adenocarcinoma): 66% | viability at 20 µM (cancer cells; Colon adenocarcinoma): 56% | viability at 10 µM (cancer cells; Colorectal cancer): 79% | viability at 20 µM (cancer cells; Colorectal cancer): 67% | viability at 10 µM (cancer cells; Gastric cancer): 66% | viability at 20 µM (cancer cells; Gastric cancer): 48% | viability at 10 µM (cancer cells; Gastrointestinal tumor): 73% | viability at 20 µM (cancer cells; Gastrointestinal tumor): 62% | viability at 10 µM (cancer cells; Glioma): 78% | viability at 20 µM (cancer cells; Glioma): 74% | viability at 10 µM (cancer cells; [4]): 73% | viability at 20 µM (cancer cells; [4]): 68% | viability at 10 µM (cancer cells; Laryngeal cancer): 76% | viability at 20 µM (cancer cells; Laryngeal cancer): 66% | viability at 10 µM (cancer cells; Liver cancer): 82% | viability at 20 µM (cancer cells; Liver cancer): 73% | viability at 10 µM (cancer cells; Lung adenocarcinoma): 77% | viability at 20 µM (cancer cells; Lung adenocarcinoma): 64% | viability at 10 µM (cancer cells; Lung cancer): 72% | viability at 20 µM (cancer cells; Lung cancer): 67% | viability at 10 µM (cancer cells; Malignant melanoma): 88% | viability at 20 µM (cancer cells; Malignant melanoma): 86% | viability at 10 µM (cancer cells; Nasopharynx cancer): 64% | viability at 20 µM (cancer cells; Nasopharynx cancer): 59% | viability at 10 µM (cancer cells; Ovarian cancer): 68% | viability at 20 µM (cancer cells; Ovarian cancer): 61% | viability at 10 µM (cancer cells; Pancreatic cancer): 68% | viability at 20 µM (cancer cells; Pancreatic cancer): 62% | viability at 10 µM (cancer cells; Prostate cancer): 75% | viability at 20 µM (cancer cells; Prostate cancer): 62% | viability at 10 µM (cancer cells; Retinoblastoma): 82% | viability at 20 µM (cancer cells; Retinoblastoma): 69% | viability at 10 µM (cancer cells; Skin cancer): 62% | viability at 20 µM (cancer cells; Skin cancer): 47% | Content of TNF-α in culture supernatant of synoviocyte (x ± s) [3]: 0.62 ± 0.054 ng/mL
